{
  "source": "paper PMC11707430",
  "about": "“Novel antibiotics against Staphylococcus aureus without detectable resistance by targeting proton motive force and FtsH” (MedComm, 2025)",
  "key": {"Human RBCs": {"tested_on": "Human RBCs", "experiment": "Red blood cell (RBC) lysis assay", "assay_type": "cell-based", "conditions": "1 h", "method": "Red blood cell (RBC) lysis assay. Human RBCs (Hemo Pharmaceutical and Biological Co.) were suspended in 1× PBS and diluted to a final concentration of 4% (vol/vol). The RBCs suspension was then incubated with serially diluted compounds at 37°C for 1h. Then, the supernatant was collected by centrifugation and the absorbance at 570 nm […]) was measured. Triton X-100 (0.1%, vol/vol) and DMSO (1%, vol/vol) were served as positive and negative controls, respectively^16."}, "S. aureus ATCC 43300 [1]": {"tested_on": "S. aureus ATCC 43300", "experiment": "Consecutive resistance inducing assay", "assay_type": "cell-based", "conditions": "sub-MIC (1/2×MIC), after 20 days of treatment", "method": "Resistance inducing assay. Consecutive and one-step resistance experiments were performed to assess the resistance-inducing ability of the compounds against S. aureus. For consecutive resistance assay, the MICs of compounds and ciprofloxacin (CIP) were determined on the first day. […] […] […] And the antimicrobial activity of the compounds against the CIP-induced strains were assessed by microdilution assay as described above. For one-step resistance assay, overnight cultured S. aureus was adjusted to a final concentration of approximately OD630=0.5 with sterile saline. One hundred microliters of the bacterial suspension were uniformly spread in pre-prepared MH agar plates containing a specific concentration of compounds. Rifampicin (RFP) was used as a positive control. The viable cells were counted on the plates after incubation at 37°C for 48h. The frequency of spontaneous drug resistance mutation was defined as the ratio of the number of resistant CFU counts to the initial CFU counts^3."}, "WP2uvrA (pKM101)": {"tested_on": "WP2uvrA (pKM101)", "experiment": "Ames test", "assay_type": "cell-based, E. coli", "method": "Ames test. Genotoxicity of the compounds was determined by Ames Kit (IPHASE, Beijing, China) containing Salmonella typhimurium (TA97a, TA98, TA100, and TA1535) and E. coli WP2 uvrA (pKM101). Diclofenac and 2-aminofluorene were used as positive controls for TA97a and TA98. Methyl methanesulfonate and 2-aminofluorene were used as positive controls for TA100. Methyl methanesulfonate and 2-aminoanthracene were used as positive controls for WP2 uvrA (pKM101). NaN3 and 2-aminoanthracene were used as positive controls for TA1535. The bottom and top layer culture medium, and S9 mixed solution were prepared according to the manufacturer’s instructions. After incubation at 37℃ for 48h, the colonies were counted."}, "[2]": {"experiment": "Liver microsomal metabolism analysis", "assay_type": "in vitro ADME", "conditions": "human; liver microsomes in vitro", "method": "Liver microsomal metabolism analysis. Human liver microsome (20 mg protein/mL) was purchased from IPHASE (Beijing, China). One microliter of C218-0546 or STK848198 (200 μM) was incubated with 2 μL of liver microsome in the presence or absence of NADPH. Phenacetin (100 μM) was used as a positive control. After incubation at 37℃ for 0, 15, 30, 45, 60 and 90 min, respectively, the samples were cooled on ice and added with 500 μL of stop solution. The remained compounds were quantified with a LC-MS (Triple Quad™ 5500, AB SCIEX, USA)."}, "S. aureus ATCC 43300 [3]": {"tested_on": "S. aureus ATCC 43300", "experiment": "Periprosthetic joint infection (PJI) model", "assay_type": "in vivo, ICR mice", "conditions": "i.p."}, "S. aureus ATCC 43300 [4]": {"tested_on": "S. aureus ATCC 43300", "experiment": "S. aureus-related abscess model", "assay_type": "in vivo, ICR mice", "conditions": "STK848198 combined with AMP, s.c.", "method": "S. aureus-related abscess model. Six to seven-week-old female, specific pathogen free outbred ICR mice were anesthetized with 1% sodium pentobarbital (50 mg/kg). The back hair was shaved with an electric razor. A 50 μL of S. aureus ATCC 43300 suspension containing 1× 10^8 CFU/ml cells was subcutaneously injected (s.c.) into the back of the mice. The mice were randomized into four groups (N = 5-6 mice per group): (1) Vehicle group, (2) C218-0546 (30 mg/kg) or STK848198 (30 mg/kg) treatment group, (3) Amikacin (25 mg/kg) treatment group, (4) C218-0546 ([…]) treatment group. Each group was administrated by s.c. after 1h post infection. The mice were sacrificed at 24h post infection, and their lesions were removed and homogenized for viable bacterial cells counting. Meanwhile, the lesions were dislocated and immersed in 4% paraformaldehyde for hematoxylin-eosin (H&E) staining, Giemsa staining and immunohistochemical analysis, respectively^22."}, "[5]": {"experiment": "Plasma protein binding rate", "assay_type": "in vitro ADME", "conditions": "human plasma", "method": "Plasma protein binding rate calculation. Human plasma was purchased from IPHASE (Beijing, China). C218-0546 or STK848198 was added into human plasma to a final concentration of 0.5, 2 and 5 μg/mL, respectively. Warfarin sodium and PBS was used as positive control and blank control, respectively. The samples were added to the upper side of the dialysis membrane (IPHASE, Beijing, China) and PBS was added to its lower side. After incubation at room temperature for 12h, the concentration of C218-0546 and STK848198 at the both sides were detected by the LC-MS. The plasma protein binding rate (%) was calculated as: (1-Cf/Cp) × 100%. Cf, concentration of free compounds (lower side). Cp, plasma protein binding compounds (upper side)."}, "HSF": {"tested_on": "HSF", "experiment": "Cytotoxicity by CCK-8", "assay_type": "cell-based, human", "method": "Cytotoxicity assessment by Cell Counting Kit-8 (CCK-8). The CCK-8 (DojinDo, Japan) was used to detect the cytotoxicity of compounds on human cell lines (LO2, HepG2, and HSF). Briefly, log phased cells were diluted with its optimal medium to ~4000 cells/well in a 96-well plate. After incubation at 37 ℃ with 5% CO2 for 24h, the unadhered cells were removed by PBS washing, and serially diluted compounds were added to each well for 24h incubation at 37 ℃ with 5% CO2. Then, 10 µL of CCK-8 was added to each well and the absorbance at 450 nm (A450nm) was recorded after 3 h of incubation^17."}},
  "data": [
    {"smiles": "Cc1nc2c(-c3ccc(Cl)cc3)cnn2c(O)c1Cc1ccccc1", "note": "[STK848198]", "values": [
      {"measurement": "hemolysis activity", "setting": "Human RBCs", "result": "No hemolysis activity"},
      {"measurement": "MIC increasement after sub-MIC treatment", "setting": "S. aureus ATCC 43300 [1]", "result": 0, "unit": "fold"},
      {"measurement": "CFU(x±SD)", "setting": "WP2uvrA (pKM101); +S9, 25 μg/well", "result": "29 ±4", "unit": "CFU"},
      {"measurement": "Fold Change", "setting": "WP2uvrA (pKM101); +S9, 25 μg/well", "result": 0.9},
      {"measurement": "CFU(x±SD)", "setting": "WP2uvrA (pKM101); +S9, 50 μg/well", "result": "26 ±4", "unit": "CFU"},
      {"measurement": "Fold Change", "setting": "WP2uvrA (pKM101); +S9, 50 μg/well", "result": 0.8},
      {"measurement": "CFU(x±SD)", "setting": "WP2uvrA (pKM101); +S9, 100 μg/well", "result": "26 ±3", "unit": "CFU"},
      {"measurement": "Fold Change", "setting": "WP2uvrA (pKM101); +S9, 100 μg/well", "result": 0.8},
      {"measurement": "CFU(x±SD)", "setting": "WP2uvrA (pKM101); +S9, 200 μg/well", "result": "29 ±3", "unit": "CFU"},
      {"measurement": "Fold Change", "setting": "WP2uvrA (pKM101); +S9, 200 μg/well", "result": 0.9},
      {"measurement": "CFU(x±SD)", "setting": "WP2uvrA (pKM101); +S9, 400 μg/well", "result": "28 ±3", "unit": "CFU"},
      {"measurement": "Fold Change", "setting": "WP2uvrA (pKM101); +S9, 400 μg/well", "result": 0.9},
      {"measurement": "CFU(x±SD)", "setting": "WP2uvrA (pKM101); -S9, 25 μg/well", "result": "22±2", "unit": "CFU"},
      {"measurement": "Fold Change", "setting": "WP2uvrA (pKM101); -S9, 25 μg/well", "result": 1},
      {"measurement": "CFU(x±SD)", "setting": "WP2uvrA (pKM101); -S9, 50 μg/well", "result": "23±4", "unit": "CFU"},
      {"measurement": "Fold Change", "setting": "WP2uvrA (pKM101); -S9, 50 μg/well", "result": 1},
      {"measurement": "CFU(x±SD)", "setting": "WP2uvrA (pKM101); -S9, 100 μg/well", "result": "21±1", "unit": "CFU"},
      {"measurement": "Fold Change", "setting": "WP2uvrA (pKM101); -S9, 100 μg/well", "result": 0.9},
      {"measurement": "CFU(x±SD)", "setting": "WP2uvrA (pKM101); -S9, 200 μg/well", "result": "24±3", "unit": "CFU"},
      {"measurement": "Fold Change", "setting": "WP2uvrA (pKM101); -S9, 200 μg/well", "result": 1},
      {"measurement": "CFU(x±SD)", "setting": "WP2uvrA (pKM101); -S9, 400 μg/well", "result": "23±1", "unit": "CFU"},
      {"measurement": "Fold Change", "setting": "WP2uvrA (pKM101); -S9, 400 μg/well", "result": 1},
      {"measurement": "half-life", "setting": "[2]", "result": 43.6, "unit": "min"},
      {"measurement": "bacterial viable cell loads in infected joint", "setting": "S. aureus ATCC 43300 [3]; day 5, AMP 25 mg/kg combined with STK848198 30 mg/kg", "result": "effectively reduce the bacterial viable cell loads"},
      {"measurement": "bacterial loads in the joint and its surrounding tissue", "setting": "S. aureus ATCC 43300 [3]; day 7, alone or in combination", "result": "reduce the bacterial loads"},
      {"measurement": "in vivo synergy, viable cell counts in abscess", "setting": "S. aureus ATCC 43300 [4]", "result": "exhibited synergy"},
      {"measurement": "plasma protein binding rate", "setting": "[5]", "result": "high"},
      {"measurement": "cytotoxicity", "setting": "HSF", "result": "no toxicity"}
    ]}
  ]
}
